Results taken from US10550105B2 (Ribon Therapeutics Inc., priority 2018, dated 2020).
pIC50: −log10 of the molar value.

target: PARP7 (Homo sapiens (Human), UniProt Q7Z3E1); test: Enzymatic assay for inhibition of PARP7: TR-FRET displacement of biotinylated Probe A from the TIPARP active site; type: binding; details: Table A-1
Procedure, shortened: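 Titrated compounds compete with the biotinylated probe; after an additional 30 min incubation at 25° C, time-delayed fluorescence (90 μs) is measured. Inhibition curves use a Hill coefficient that normally floats but may be held at 1.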

Sequence of PARP7 (Q7Z3E1 whole entry): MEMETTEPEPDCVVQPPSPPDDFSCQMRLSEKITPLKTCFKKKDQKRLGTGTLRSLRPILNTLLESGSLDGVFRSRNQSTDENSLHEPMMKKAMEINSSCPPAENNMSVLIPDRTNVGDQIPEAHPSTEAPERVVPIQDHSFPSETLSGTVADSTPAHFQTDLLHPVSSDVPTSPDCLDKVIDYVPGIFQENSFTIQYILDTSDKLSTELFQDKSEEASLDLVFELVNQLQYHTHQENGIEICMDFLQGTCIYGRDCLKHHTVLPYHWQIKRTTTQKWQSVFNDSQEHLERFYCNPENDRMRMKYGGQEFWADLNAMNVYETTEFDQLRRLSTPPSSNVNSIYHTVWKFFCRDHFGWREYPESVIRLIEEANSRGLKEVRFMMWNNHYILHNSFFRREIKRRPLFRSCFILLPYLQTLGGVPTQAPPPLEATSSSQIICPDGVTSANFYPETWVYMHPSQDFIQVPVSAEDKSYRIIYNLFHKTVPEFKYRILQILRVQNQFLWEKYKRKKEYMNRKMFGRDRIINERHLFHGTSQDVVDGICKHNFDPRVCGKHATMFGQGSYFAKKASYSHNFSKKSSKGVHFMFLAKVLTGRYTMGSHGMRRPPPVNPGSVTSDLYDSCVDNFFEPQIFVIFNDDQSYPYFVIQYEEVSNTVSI

Row | SMILES | pIC50
1 | O=c1[nH]ncc(N2Cc3cccc(N4CCCC4)c3C2)c1C(F)(F)F [Example 284, 5-(4-(Pyrrolidin-1-yl)isoindolin-2-yl)-4-(trifluoromethyl)pyridazin-3(2H)-one] | > 7.00
2 | N#Cc1ccc(N2CCN(C(=O)C[C@@H]3CC[C@@H](CNc4cn[nH]c(=O)c4C(F)(F)F)O3)CC2)nc1 (single isomer, unassigned) [Example 581 Isomer B] | > 7.00
3 | N#Cc1ccc(N2CCN(C(=O)CCOCc3cccc4c3CN(c3cn[nH]c(=O)c3C(F)(F)F)C4)CC2)nc1 [Example 495, 6-(4-(3-((2-(6-Oxo-5-(trifluoromethyl)-1,6-dihydropyridazin-4-yl)isoindolin-4-yl)methoxy)propanoyl)piperazin-1-yl)nicotinonitrile] | > 7.00
4 | N#Cc1cnc(N2CCN(C(=O)c3cncc(OC[C@@H]4CCCN4c4cn[nH]c(=O)c4C(F)(F)F)c3)CC2)cn1 [Example 444, (S)-5-(4-(5-((1-(6-Oxo-5-(trifluoromethyl)-1,6-dihydropyridazin-4-yl)pyrrolidin-2-yl)methoxy)nicotinoyl)piperazin-1-yl)pyrazine-2-carbonitrile] | > 7.00
5 | N#Cc1ccc(N2CCN(C(=O)c3cccc(OC[C@@H]4CCCN4c4cn[nH]c(=O)c4C(F)(F)F)c3)C(CO)C2)nc1 (stereo partly shown) [Example 33] | > 7.00
6 | O=C(C[C@H]1CC[C@H](CNc2cn[nH]c(=O)c2C(F)(F)F)O1)N1CCN(c2ccc(C(F)(F)F)cn2)CC1 (single isomer, unassigned) [Example 546 Isomer B] | > 7.00
7 | O=C(COC[C@@H]1CCCN1c1cn[nH]c(=O)c1C(F)(F)F)NC1CCC(Oc2ccccn2)CC1 (stereo partly drawn) [Example 83, 2-[[(2S)-1-[6-oxo-5-(trifluoromethyl)-1,6-dihydropyridazin-4-yl]pyrrolidin-2-yl]methoxy]-N-[4-(pyridin-2-yloxy)cyclohexyl]acetamide] | 6.00 to 7.00
8 | CCc1c(N2Cc3cccc(OCCO)c3C2)cn[nH]c1=O [Example 185, 4-Ethyl-5-(4-(2-hydroxyethoxy)isoindolin-2-yl)pyridazin-3(2H)-one] | ≤ 6.00
9 | CC(=O)N1CCN(c2cccc3c2CN(c2cn[nH]c(=O)c2C(F)(F)F)C3)CC1 [Example 294, 5-(4-(4-Acetylpiperazin-1-yl)isoindolin-2-yl)-4-(trifluoromethyl)pyridazin-3(2H)-one] | > 7.00
10 | O=c1[nH]ncc(N2Cc3cccc(OCc4ccccn4)c3C2)c1C(F)(F)F [Example 198, 5-(4-(Pyridin-2-ylmethoxy)isoindolin-2-yl)-4-(trifluoromethyl)pyridazin-3(2H)-one] | > 7.00
11 | O=C(CCOC[C@@H]1CCCN1c1cn[nH]c(=O)c1C(F)(F)F)N1CCN(c2ncccn2)CC1 [Example 456, (S)-5-(2-((3-Oxo-3-(4-(pyrimidin-2-yl)piperazin-1-yl)propoxy)methyl)pyrrolidin-1-yl)-4-(trifluoromethyl)pyridazin-3(2H)-one] | > 7.00
12 | N#Cc1ccc(N2CCN(C(=O)c3cccc(OCC4c5ncccc5CN4c4cn[nH]c(=O)c4C(F)(F)F)c3)CC2)nc1 (stereo not shown) [Example 397, 6-(4-(3-((6-(6-Oxo-5-(trifluoromethyl)-1,6-dihydropyridazin-4-yl)-6,7-dihydro-5H-pyrrolo[3,4-b]pyridin-7-yl)methoxy)benzoyl)piperazin-1-yl)nicotinonitrile] | > 7.00
13 | N#Cc1cccnc1N1CCN(C(=O)c2cccc(OC[C@H]3c4ccccc4CN3c3cn[nH]c(=O)c3C(F)(F)F)c2)CC1 [Example 360, (R)-2-(4-(3-((2-(6-Oxo-5-(trifluoromethyl)-1,6-dihydropyridazin-4-yl)isoindolin-1-yl)methoxy)benzoyl)piperazin-1-yl)nicotinonitrile] | ≤ 6.00
14 | COC[C@H](COCCC(=O)N1CCN(c2ncc(C(F)(F)F)cn2)CC1)Sc1cn[nH]c(=O)c1C(F)(F)F (single isomer, unassigned) [Example 692] | 6.00 to 7.00
15 | CCc1c(N2Cc3cccc(OC4CCNCC4)c3C2)cn[nH]c1=O [Example 272, 4-Ethyl-5-(4-(piperidin-4-yloxy)isoindolin-2-yl)pyridazin-3(2H)-one] | ≤ 6.00
16 | N#Cc1ccc(N2CCN(C(=O)CCCOCC3c4ncccc4CN3c3cn[nH]c(=O)c3C(F)(F)F)CC2)nc1 (stereo not shown) [Example 411, 6-(4-(4-((6-(6-Oxo-5-(trifluoromethyl)-1,6-dihydropyridazin-4-yl)-6,7-dihydro-5H-pyrrolo[3,4-b]pyridin-7-yl)methoxy)butanoyl)piperazin-1-yl)nicotinonitrile] | > 7.00
17 | C[C@@H](COCCC(=O)N1CCC(Oc2ncc(C(F)(F)F)cn2)C1)Nc1cn[nH]c(=O)c1C(F)(F)F (stereo partly drawn) [Example 716, 5-(((2S)-1-(3-Oxo-3-(3-((5-(trifluoromethyl)pyrimidin-2-yl)oxy)pyrrolidin-1-yl)propoxy)propan-2-yl)amino)-4-(trifluoromethyl)pyridazin-3(2H)-one] | > 7.00

Row | SMILES | pIC50
18 | O=C(c1cccc(OC[C@@H]2CCCN2c2cn[nH]c(=O)c2C(F)(F)F)c1)N1CCN(c2ncc(C(F)(F)F)cn2)CC1 [Example 441, (S)-4-(Trifluoromethyl)-5-(2-((3-(4-(5-(trifluoromethyl)pyrimidin-2-yl)piperazine-1-carbonyl)phenoxy)methyl)pyrrolidin-1-yl)pyridazin-3(2H)-one] | > 7.00
19 | N#Cc1ccc(N2CCCN(C(=O)CCOC[C@@H]3CCCN3c3cn[nH]c(=O)c3C(F)(F)F)CC2)nc1 [Example 106, (S)-6-(4-(3-((1-(6-oxo-5-(trifluoromethyl)-1,6-dihydropyridazin-4-yl)pyrrolidin-2-yl)methoxy)propanoyl)-1,4-diazepan-1-yl)nicotinonitrile] | > 7.00
20 | C[C@H](COCCC(=O)N1CCN(c2ccc(Cl)cn2)CC1)Oc1cn[nH]c(=O)c1C(F)(F)F (single isomer, unassigned) [Example 539 Isomer D] | 6.00 to 7.00
21 | O=C(CCOC[C@@H]1CCCN1c1cn[nH]c(=O)c1C(F)(F)F)N1CCN(c2ccccn2)CC1 [Example 454, (S)-5-(2-((3-Oxo-3-(4-(pyridin-2-yl)piperazin-1-yl)propoxy)methyl)pyrrolidin-1-yl)-4-(trifluoromethyl)pyridazin-3(2H)-one] | > 7.00
22 | O=c1[nH]ncc(N2Cc3cccc(OCCO)c3C2)c1Cl [Example 161, 4-Chloro-5-(4-(2-hydroxyethoxy)isoindolin-2-yl)pyridazin-3(2H)-one] | 6.00 to 7.00
23 | C[C@@H](COCCC(=O)N1CCN(c2ncc(C(F)(F)F)cn2)CC1)Sc1cn[nH]c(=O)c1Cl [Example 701, (S)-4-Chloro-5-((1-(3-oxo-3-(4-(5-(trifluoromethyl)pyrimidin-2-yl)piperazin-1-yl)propoxy)propan-2-yl)thio)pyridazin-3(2H)-one] | > 7.00
24 | O=C(C[C@H]1CC[C@H](CNc2cn[nH]c(=O)c2C(F)(F)F)O1)N1CCN(c2ncc(C(F)(F)F)cn2)CC1 (single isomer, unassigned) [Example 568 Isomer B] | > 7.00
25 | C[C@@H](COCCC(=O)N1CCC(c2ncc(C(F)(F)F)cn2)CC1)Nc1cn[nH]c(=O)c1C(F)(F)F [Example 664, (S)-5-((1-(3-Oxo-3-(4-(5-(trifluoromethyl)pyrimidin-2-yl)piperidin-1-yl)propoxy)propan-2-yl)amino)-4-(trifluoromethyl)pyridazin-3(2H)-one] | > 7.00
26 | C[C@@H](COCCC(=O)N1CCN(c2ncc(Cl)s2)CC1)Oc1cn[nH]c(=O)c1C(F)(F)F [Example 723, (S)-5-((1-(3-(4-(5-Chlorothiazol-2-yl)piperazin-1-yl)-3-oxopropoxy)propan-2-yl)oxy)-4-(trifluoromethyl)pyridazin-3(2H)-one] | > 7.00
27 | O=c1[nH]ncc(N2Cc3cccc(OC4CCNCC4)c3C2)c1Br [Example 172, 4-Bromo-5-(4-(piperidin-4-yloxy)isoindolin-2-yl)pyridazin-3(2H)-one] | 6.00 to 7.00
28 | N#Cc1ccc(N2CCN(C(=O)CCO[C@@H]3CCC[C@H]3Oc3cn[nH]c(=O)c3C(F)(F)F)CC2)nc1 (single isomer, unassigned) [Example 572 Isomer B] | 6.00 to 7.00
29 | N#Cc1ccc(N2CCN(C(=O)c3cccc(OCC4CCCN4c4cn[nH]c(=O)c4C(F)(F)F)c3)CC2)nc1 (stereo not shown) [Example 435, 6-(4-(3-((1-(6-Oxo-5-(trifluoromethyl)-1,6-dihydropyridazin-4-yl)pyrrolidin-2-yl)methoxy)benzoyl)piperazin-1-yl)nicotinonitrile] | > 7.00
30 | C[C@@H]1CN(c2ccc(C#N)cn2)CCN1C(=O)CCOC[C@@H]1CCCN1c1cn[nH]c(=O)c1C(F)(F)F [Example 100A, 6-[(3R)-3-methyl-4-(3-[[(2S)-1-[6-oxo-5-(trifluoromethyl)-1,6-dihydropyridazin-4-yl]pyrrolidin-2-yl]methoxy]propanoyl)piperazin-1-yl]pyridine-3-carbonitrile] | > 7.00
31 | CC(=O)N1CCC(Oc2cnc3c(c2)CN(c2cn[nH]c(=O)c2C(F)(F)F)C3)CC1 [Example 8, 5-[3-[(1-acetylpiperidin-4-yl)oxy]-5H,6H,7H-pyrrolo[3,4-b]pyridin-6-yl]-4-(trifluoro-methyl)-2,3-dihydropyridazin-3-one] | 6.00 to 7.00
32 | COC[C@@H](COCCC(=O)N1CCN(c2cnc(C)cn2)CC1)Nc1cn[nH]c(=O)c1C(F)(F)F [Example 695, (S)-5-((1-Methoxy-3-(3-(4-(5-methylpyrazin-2-yl)piperazin-1-yl)-3-oxopropoxy)propan-2-yl)amino)-4-(trifluoromethyl)pyridazin-3(2H)-one] | > 7.00
33 | C[C@@H](COCCC(=O)N1CCN(c2ncc(Cl)s2)CC1)Nc1cn[nH]c(=O)c1C(F)(F)F [Example 721, (S)-5-((1-(3-(4-(5-Chlorothiazol-2-yl)piperazin-1-yl)-3-oxopropoxy)propan-2-yl)amino)-4-(trifluoromethyl)pyridazin-3(2H)-one] | > 7.00
34 | N#Cc1cccc2c1CN(c1cn[nH]c(=O)c1C(F)(F)F)C2 [Example 206, 2-(6-Oxo-5-(trifluoromethyl)-1,6-dihydropyridazin-4-yl)isoindoline-4-carbonitrile] | > 7.00
